The source of these data is ChEMBL document CHEMBL4725412, “Augmenting the Activity of Macrolide Adjuvants against Acinetobacter baumannii” (2020).

A word on the MIC: it is the lowest concentration that inhibits growth of the organism.

What all share (type): functional
Test [1] deals with Acinetobacter baumannii. Description: Potentiation of clarithromycin-induced antibacterial activity against Acinetobacter baumannii AB5075 assessed as fold reduction in clarithromycin MIC at 5 uM incubated for 16 hrs in presence of clarithromycin by broth microdilution method. Background: In broth dilution the organism is exposed to a series of concentrations in liquid medium.

Test [2] deals with Acinetobacter baumannii. Description: Potentiation of clarithromycin-induced antibacterial activity against Acinetobacter baumannii 5711 assessed as fold reduction in clarithromycin MIC at 7.5 uM incubated for 16 hrs by broth microdilution method.
The subject of test [3] is Acinetobacter baumannii. Briefly: Potentiation of clarithromycin-induced antibacterial activity against Acinetobacter baumannii 4448 assessed as fold reduction in clarithromycin MIC at 7.5 uM incubated for 16 hrs by broth microdilution method.
In test [4] the test system is Acinetobacter baumannii. Briefly: Antibacterial activity against Acinetobacter baumannii 3806 assessed as reduction in microbial growth incubated for 16 hrs by broth microdilution method.
Test [5] concerns Acinetobacter baumannii. Briefly: Potentiation of clarithromycin-induced antibacterial activity against Acinetobacter baumannii 4026 assessed as fold reduction in clarithromycin MIC at 7.5 uM incubated for 16 hrs by broth microdilution method.
Test [6] relates to Acinetobacter baumannii. Briefly: Potentiation of clarithromycin-induced antibacterial activity against Acinetobacter baumannii 4269 assessed as fold reduction in clarithromycin MIC at 7.5 uM incubated for 16 hrs by broth microdilution method.
Test [7] deals with Acinetobacter baumannii. Briefly: Antibacterial activity against Acinetobacter baumannii 4991 assessed as reduction in microbial growth incubated for 16 hrs by broth microdilution method.
In test [8] the test system is Acinetobacter baumannii. Briefly: Potentiation of clarithromycin-induced antibacterial activity against Acinetobacter baumannii 4498 assessed as fold reduction in clarithromycin MIC at 7.5 uM incubated for 16 hrs by broth microdilution method.
Test [9] has as its system Acinetobacter baumannii. Briefly: Antibacterial activity against Acinetobacter baumannii 4498 assessed as reduction in microbial growth incubated for 16 hrs by broth microdilution method.
Test [10] has as its system Acinetobacter baumannii. Description: Potentiation of clarithromycin-induced antibacterial activity against Acinetobacter baumannii 5256 assessed as fold reduction in clarithromycin MIC at 7.5 uM incubated for 16 hrs by broth microdilution method.

In the case of `Cl.Nc1nc(-c2ccc(NC(=O)Nc3cc(Br)cc(Br)c3)cc2)c[nH]1`, the “fold change (FC)” value was found to be 8 in the test with Acinetobacter baumannii [1]; 16 in the test with Acinetobacter baumannii [2]; 16 with Acinetobacter baumannii [3]; 16 in the test on Acinetobacter baumannii [5]; 16 in the test on Acinetobacter baumannii [6]; 16 with Acinetobacter baumannii [8]. Also, the “fold change (FC)” value with Acinetobacter baumannii [10] amounted to 16. Also, the MIC with Acinetobacter baumannii [4], in the test on Acinetobacter baumannii [7] and with Acinetobacter baumannii [9] was 25 µM in each case.
